Drawing on US7910584B2, “3-spiroindolin-2-one derivatives, preparation and therapeutic use thereof” (Sanofi-Aventis, priority 2004, dated 2011), this text covers IC50 for one compound.

The assay has as its target T1, recombinant human vasopressin V2 receptors (Homo sapiens, UniProt P30518).
T1 construct: expressed in transfected cells; host or cells: CHO cell line (plasma membranes)
Nature of the assay: In vitro binding assay, [3H]-AVP displacement on plasma membranes. To be noted: membranes from tissues or CHO cell line expressing recombinant human V2 receptors; 3.5 nM [H3]-AVP; 45 minutes at 25° C.; read-out: IC50 (concentration of product that inhibits 50% of the specific binding). The protocol:
They were in particular tested with regard to their effects.
The affinity of the compounds of the invention for vasopressin V2 receptors was measured in in vitro binding assays, as described in J. Pharmacol. Exp. Ther., (2002), 300, pp. 1122-1130.
Plasma membranes (approximately 20 μg/ml) originating from tissues or the CHO cell line expressing recombinant human vasopressin V2 receptors are incubated for 45 minutes at 25° C. in 200 μl of TRIS-HCl buffer (50 mM; pH 8.2) containing 2 mM of MgCl2, 1 mM of EDTA, 0.1% of BSA, 1 mg/ml of bacitracin and 3.5 nM of [H^3]-AVP. The reaction is stopped by filtration and washing over GF/B filters. The nonspecific binding is determined in the presence of 1 μM of AVP. The compounds of the invention, dissolved beforehand at the concentration of 10^−2 M in DMSO, are tested in a dilution range.
For each concentration, the results are expressed as percentage inhibition of specific binding. An IC50 (concentration of product that inhibits 50% of the specific binding) is determined for each of the products using the “RS1 binding” program (BBN Domain, Cambridge, Mass.).

T1 sequence (P30518 whole entry): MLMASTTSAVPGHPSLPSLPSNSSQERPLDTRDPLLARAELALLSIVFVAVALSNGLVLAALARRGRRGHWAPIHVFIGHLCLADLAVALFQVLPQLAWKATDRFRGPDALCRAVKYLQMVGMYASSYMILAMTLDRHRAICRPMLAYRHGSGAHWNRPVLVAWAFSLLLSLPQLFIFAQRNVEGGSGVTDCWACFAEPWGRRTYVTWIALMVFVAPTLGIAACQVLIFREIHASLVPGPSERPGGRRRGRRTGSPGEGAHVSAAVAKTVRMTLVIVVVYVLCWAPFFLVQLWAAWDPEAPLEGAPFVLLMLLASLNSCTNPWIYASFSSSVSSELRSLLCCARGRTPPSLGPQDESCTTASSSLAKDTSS

`CCOc1ccc2c(c1)C1(CCC(OCCN3CCOCC3=O)CC1)C(=O)N2S(=O)(=O)c1ccc(C(=O)NC(C)(C)C)cc1OC` (stereo not shown): the IC50 was about 7.3 nM.
